Consider 26 compounds from patent US9796704B2, “Substituted quinazolines as receptor-type kinase inhibitors” (Symphony Evolution, Inc., priority 2002, dated 2017).

Some results are limits rather than exact numbers.

The term IC50 denotes the concentration needed to halve the response being measured.

The target of test [1] is EphA2 (Homo sapiens (Human), UniProt P29317). The test can be described thus: EphA2 kinase inhibition, luciferase-coupled chemiluminescent assay (LCCA). The conditions noted are these: read-out: EphA2 IC50.
Chain of EphA2 (P29317 598-890): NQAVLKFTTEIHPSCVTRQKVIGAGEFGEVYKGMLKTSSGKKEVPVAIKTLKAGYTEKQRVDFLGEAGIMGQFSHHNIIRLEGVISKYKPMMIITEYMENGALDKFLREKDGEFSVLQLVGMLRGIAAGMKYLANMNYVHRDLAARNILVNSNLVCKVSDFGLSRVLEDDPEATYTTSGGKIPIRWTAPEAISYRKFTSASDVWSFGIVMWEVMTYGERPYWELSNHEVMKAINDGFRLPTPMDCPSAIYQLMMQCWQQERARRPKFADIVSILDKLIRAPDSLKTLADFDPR
The target of test [2] is EGFR (Homo sapiens (Human), UniProt P00533). The test can be described thus: EGFR kinase inhibition, luciferase-coupled chemiluminescent assay (LCCA). The conditions noted are these: read-out: EGFR IC50.
Chain of EGFR (P00533 672-1210): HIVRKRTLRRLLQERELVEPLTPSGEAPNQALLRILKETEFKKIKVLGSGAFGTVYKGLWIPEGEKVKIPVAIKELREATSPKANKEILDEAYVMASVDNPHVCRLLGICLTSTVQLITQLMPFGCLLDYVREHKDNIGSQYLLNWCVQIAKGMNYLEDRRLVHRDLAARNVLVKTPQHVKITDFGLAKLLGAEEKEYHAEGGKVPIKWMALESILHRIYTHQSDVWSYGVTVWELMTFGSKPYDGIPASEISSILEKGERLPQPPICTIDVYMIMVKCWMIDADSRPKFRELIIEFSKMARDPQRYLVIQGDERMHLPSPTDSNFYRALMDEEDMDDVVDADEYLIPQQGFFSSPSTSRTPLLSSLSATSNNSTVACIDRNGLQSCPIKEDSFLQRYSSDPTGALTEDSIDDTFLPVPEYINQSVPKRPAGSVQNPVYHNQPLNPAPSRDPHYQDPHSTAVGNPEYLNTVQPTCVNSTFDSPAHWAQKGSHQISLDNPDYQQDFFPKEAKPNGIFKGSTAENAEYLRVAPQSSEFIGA
Description: Kinase activity and compound inhibition are investigated using one or more of the three assay formats described below. The ATP concentrations are selected near its Michaelis-Menten constant (KM) for each individual kinase. Dose-response experiments are performed at ten different inhibitor concentrations in a 384-well plate format. […] Typically H is close to unity.
In the LCCA assays, kinase activity is measured by the ATP consumption that is accurately measured by luciferase-coupled chemiluminescence. Greiner 384-well white clear bottom medium binding plates are used for LCCA. Briefly the kinase reaction is initiated by mixing compounds, ATP and kinases in a 20 μL volume. At the end of the kinase reaction, a 20 μL luciferase-luciferin mix is added and the chemiluminescent signal is read on a Wallac Victor^2 reader.
Test [3] has as its target EphB4 (Homo sapiens (Human), UniProt P54760). The test can be described thus: EphB4 kinase inhibition, 33P phosphoryl transfer assay (radiometric). Format: biochemical.

Chain of EphB4 (P54760 605-890): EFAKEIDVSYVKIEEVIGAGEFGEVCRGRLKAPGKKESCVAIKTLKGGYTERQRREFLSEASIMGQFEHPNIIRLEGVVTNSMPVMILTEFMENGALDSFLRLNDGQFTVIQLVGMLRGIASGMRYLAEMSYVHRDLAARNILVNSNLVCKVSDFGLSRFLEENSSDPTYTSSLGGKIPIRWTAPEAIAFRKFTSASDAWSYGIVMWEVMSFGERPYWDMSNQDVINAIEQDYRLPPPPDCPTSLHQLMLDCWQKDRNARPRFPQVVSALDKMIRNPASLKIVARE

Turning to `COc1cc2c(Nc3ccc(Cl)c(Cl)c3)ncnc2cc1OCc1noc(-c2ccccc2OC)n1` [Example 227, N-(3,4-dichlorophenyl)-6-(methyloxy)-7-[({5-[2-(methyloxy)phenyl]-1,2,4-oxadiazol-3-yl}methyl)oxy]quinazolin-4-amine], the IC50 in test [1] is 50 to 1000 nM; in test [2] it was less than 50 nM; in test [3], less than 50 nM.
Take `COc1cc2c(Nc3ccc(Cl)c(Cl)c3)ncnc2cc1OC[C@H]1O[C@H](OC)[C@H](O)[C@@H](O)[C@@H]1O` (stereo in doubt) [Example 194, methyl 6-O-[4-[(3,4-dichlorophenyl)amino]-6-(methyloxy)quinazolin-7-yl]-alpha-D-glucopyranoside]: the IC50 in test [1] was 50 to 1000 nM; in test [2], less than 50 nM; in test [3], less than 50 nM.
With `CCO[C@H]1CO[C@H]2[C@@H]1OC[C@@H]2Oc1cc2ncnc(Nc3ccc(Br)c(Cl)c3)c2cc1OC` [Example 74, 1,4:3,6-dianhydro-2-O-[4-[(4-bromo-3-chlorophenyl)amino]-6-(methyloxy)quinazolin-7-yl]-5-O-ethyl-L-iditol], the values for the IC50 in test [1], in test [2] and in test [3] were 1000 to 20000 nM, less than 50 nM and 50 to 1000 nM, respectively.
`COc1cc2c(Nc3ccc(Cl)c(Cl)c3)ncnc2cc1OCc1csc(C2CCN(C)CC2)n1` [Example 214, N-(3,4-dichlorophenyl)-6-(methyloxy)-7-({[2-(1-methylpiperidin-4-yl)-1,3-thiazol-4-yl]methyl}oxy)quinazolin-4-amine]: the IC50 is 50 to 1000 nM in test [1], less than 50 nM in test [2] and less than 50 nM in test [3].
For `COc1cc2c(Nc3ccc(Cl)c(Cl)c3)ncnc2cc1OCc1csc(CO)n1` [Example 246, [4-({[4-[(3,4-dichlorophenyl)amino]-6-(methyloxy)quinazolin-7-yl]oxy}methyl)-1,3-thiazol-2-yl]methanol], the IC50 in test [1], in test [2] and in test [3] was less than 50 nM each time.
For the compound `COc1cc2c(Nc3ccc(Cl)c(Cl)c3)ncnc2cc1OCc1csc2ccc(Cl)cc12` [Example 225, 7-{[(5-chloro-1-benzothien-3-yl)methyl]oxy}-N-(3,4-dichlorophenyl)-6-(methyloxy)quinazolin-4-amine], the IC50 in test [1] was 1000 to 20000 nM; in test [2], less than 50 nM; in test [3] it was 1000 to 20000 nM.
As for `COc1cc2c(Nc3ccc(Cl)c(Cl)c3)ncnc2cc1OCc1csc(C2CCCNC2)n1` (stereo not drawn) [Example 251, N-(3,4-dichlorophenyl)-6-(methyloxy)-7-{[(2-piperidin-3-yl-1,3-thiazol-4-yl)methyl]oxy}quinazolin-4-amine], the IC50 in test [1] was 1000 to 20000 nM; in test [2] it was less than 50 nM; in test [3], 50 to 1000 nM.
The corresponding values for `COc1cc2c(Nc3ccc(Cl)c(Cl)c3)ncnc2cc1OCC(=O)N1CCOCC1` [Example 195, N-(3,4-dichlorophenyl)-6-(methyloxy)-7-[(2-morpholin-4-yl-2-oxoethyl)oxy]quinazolin-4-amine] are 50 to 1000 nM, less than 50 nM and 50 to 1000 nM.
In the case of `COc1cc2c(Nc3ccc(Cl)c(Cl)c3)ncnc2cc1OCc1csc(C2CCCCN2)n1` (stereo not drawn) [Example 249, N-(3,4-dichlorophenyl)-6-(methyloxy)-7-{[(2-piperidin-2-yl-1,3-thiazol-4-yl)methyl]oxy}quinazolin-4-amine], the IC50 is 50 to 1000 nM in test [1], less than 50 nM in test [2] and 50 to 1000 nM in test [3].
Consider `COc1cc2c(Nc3ccc(Cl)c(Cl)c3)ncnc2cc1OCCC1CCCCC1` [Example 185, 7-[(2-cyclohexylethyl)oxy]-N-(3,4-dichlorophenyl)-6-(methyloxy)quinazolin-4-amine], for which the half-inhibitory concentration (IC50) was 50 to 1000 nM in test [1], less than 50 nM in test [2] and 50 to 1000 nM in test [3].
Take `COc1cc2c(Nc3ccc(Cl)c(Cl)c3)ncnc2cc1OCc1nccn1Cc1ccccc1` [Example 229, N-(3,4-dichlorophenyl)-6-(methyloxy)-7-({[1-(phenylmethyl)-lH-imidazol-2-yl]methyl}oxy)quinazolin-4-amine]: the IC50 in test [1] is 1000 to 20000 nM; in test [2], less than 50 nM; in test [3], 50 to 1000 nM.
For `CCOC(=O)C(C)N1CCOC(COc2cc3ncnc(Nc4ccc(Cl)c(Cl)c4)c3cc2OC)C1` (stereo not drawn) [Example 273, ethyl 2-[2-({[4-[(3,4-dichlorophenyl)amino]-6-(methyloxy)quinazolin-7-yl]oxy}methyl)morpholin-4-yl]propanoate], the values for the IC50 in test [1], in test [2] and in test [3] were 1000 to 20000 nM, less than 50 nM and 1000 to 20000 nM, respectively.
For `COc1cc2c(Nc3ccc(Cl)c(Cl)c3)ncnc2cc1OCc1csc([C@@H]2CCCN2C)n1` [Example 266, N-(3,4-dichlorophenyl)-6-(methyloxy)-7-[({2-[(2S)-1-methylpyrrolidin-2-yl]-1,3-thiazol-4-yl}methyl)oxy]quinazolin-4-amine], the IC50 is 1000 to 20000 nM in test [1], less than 50 nM in test [2] and 50 to 1000 nM in test [3].
`COc1cc2c(Nc3ccc(Cl)c(Cl)c3)ncnc2cc1OC1CCCC1` [Example 184, 7-(cyclopentyloxy)-N-(3,4-dichlorophenyl)-6-(methyloxy)quinazolin-4-amine]: the 50% inhibitory concentration (IC50) in test [1] was 1000 to 20000 nM; in test [2], less than 50 nM; in test [3], 50 to 1000 nM.
As for `COc1cc2c(Nc3ccc(Cl)c(Cl)c3)ncnc2cc1OCC1CN(C)CCO1` (stereo not drawn) [Example 151, N-(3,4-dichlorophenyl)-7-{[(4-methylmorpholin-2-yl)methyl]oxy}-6-(methyloxy)quinazolin-4-amine], the IC50 was 50 to 1000 nM in test [1], less than 50 nM in test [2] and 50 to 1000 nM in test [3].
For the compound `COc1cc2c(Nc3ccc(Cl)c(Cl)c3)ncnc2cc1OCc1nc(N2CCOCC2)no1` [Example 205, N-(3,4-dichlorophenyl)-6-(methyloxy)-7-{[(3-morpholin-4-yl-1,2,4-oxadiazol-5-yl)methyl]oxy}quinazolin-4-amine], the figures for the concentration for half-maximal inhibition (IC50) in test [1], in test [2] and in test [3] were 50 to 1000 nM, less than 50 nM and less than 50 nM, respectively.
Turning to `CCN1CCCCC1c1nc(COc2cc3ncnc(Nc4ccc(Cl)c(Cl)c4)c3cc2OC)no1` (stereo not drawn) [Example 219, N-(3,4-dichlorophenyl)-7-({[5-(1-ethylpiperidin-2-yl)-1,2,4-oxadiazol-3-yl]methyl}oxy)-6-(methyloxy)quinazolin-4-amine], the IC50 in test [1] was 50 to 1000 nM; in test [2] it was less than 50 nM; in test [3], 50 to 1000 nM.
Take `COc1cc2c(Nc3ccc(Cl)c(Cl)c3)ncnc2cc1OCC1CN(CCOCCO)CCO1` (stereo not drawn) [Example 275, 2-({2-[2-({[4-[(3,4-dichlorophenyl)amino]-6-(methyloxy)quinazolin-7-yl]oxy}methyl)morpholin-4-yl]ethyl}oxy)ethanol]: the results for the IC50 in test [1], in test [2] and in test [3] were 1000 to 20000 nM, less than 50 nM and 1000 to 20000 nM, respectively.
Regarding `COc1cc2c(Nc3ccc(Cl)c(Cl)c3)ncnc2cc1OCC1CN(C)CCN1C` (stereo not drawn) [Example 268, N-(3,4-dichlorophenyl)-7-{[(1,4-dimethylpiperazin-2-yl)methyl]oxy}-6-(methyloxy)quinazolin-4-amine], the IC50 is 1000 to 20000 nM in test [1], less than 50 nM in test [2] and 50 to 1000 nM in test [3].
For `CCN1CCCOC(COc2cc3ncnc(Nc4ccc(Cl)c(Cl)c4)c3cc2OC)C1` (stereo not drawn) [Example 241, N-(3,4-dichlorophenyl)-7-{[(4-ethyl-1,4-oxazepan-2-yl)methyl]oxy}-6-(methyloxy)quinazolin-4-amine], in that order: less than 50 nM, less than 50 nM and less than 50 nM.
With `COc1cc2c(Nc3ccc(Cl)c(Cl)c3)ncnc2cc1OCCN1CCOCC1` [Example 190, N-(3,4-dichlorophenyl)-6-(methyloxy)-7-[(2-morpholin-4-ylethyl)oxy]quinazolin-4-amine], the IC50 was 50 to 1000 nM in test [1], less than 50 nM in test [2] and 50 to 1000 nM in test [3].
As for `COc1cc2c(Nc3ccc(Cl)c(Cl)c3)ncnc2cc1OCCN1CCCC1` [Example 191, N-(3,4-dichlorophenyl)-6-(methyloxy)-7-[(2-pyrrolidin-1-ylethyl)oxy]quinazolin-4-amine], the IC50 in test [1] was 50 to 1000 nM; in test [2], less than 50 nM; in test [3] it was 50 to 1000 nM.
Turning to `COc1cc2c(Nc3ccc(Cl)c(Cl)c3)ncnc2cc1OCc1csc(C2CCCCN2C)n1` (stereo not drawn) [Example 250, N-(3,4-dichlorophenyl)-6-(methyloxy)-7-({[2-(1-methylpiperidin-2-yl)-1,3-thiazol-4-yl]methyl}oxy)quinazolin-4-amine], the values for the IC50 in test [1], in test [2] and in test [3] were 50 to 1000 nM, less than 50 nM and 50 to 1000 nM, respectively.
As to `COc1cc2c(Nc3ccc(Cl)c(Cl)c3)ncnc2cc1O[C@H]1CO[C@H]2[C@@H]1OC[C@@H]2OC` [Example 72, 1,4:3,6-dianhydro-2-O-[4-[(3,4-dichlorophenyl)amino]-6-(methyloxy)quinazolin-7-yl]-5-O-methyl-L-iditol], the values for the IC50 in test [1], in test [2] and in test [3] were 50 to 1000 nM, less than 50 nM and 50 to 1000 nM, respectively.
For `COc1cc2c(Nc3ccc(Cl)c(Cl)c3)ncnc2cc1OCc1nc2c(s1)CNCC2` [Example 208, N-(3,4-dichlorophenyl)-6-(methyloxy)-7-[(4,5,6,7-tetrahydro[1,3]thiazolo[5,4-c]pyridin-2-ylmethyl)oxy]quinazolin-4-amine], the half-inhibitory concentration (IC50) in test [1] is 50 to 1000 nM; in test [2], less than 50 nM; in test [3], 50 to 1000 nM.
With `COc1cc2c(Nc3ccc(Cl)c(Cl)c3)ncnc2cc1OCCC1OCCO1` [Example 188, N-(3,4-dichlorophenyl)-7-{[2-(1,3-dioxolan-2-yl)ethyl]oxy}-6-(methyloxy)quinazolin-4-amine], the IC50 in test [1] is 50 to 1000 nM; in test [2], less than 50 nM; in test [3] it was 50 to 1000 nM.
